# Several values for one entry are separate records, joined by “and”; a condition that tells them apart may be missing. Equal entries are not always repeated.
# Tested on: adults with recurrence of glioblastoma multiforme (GBM)
# Experiment: Phase 2 open-label study of IV AR-67 (7.5 mg/m2 once daily for 5 days, 21-day cycle) in recurrent GBM: adverse events (Safety Population, NCI-CTCAE). Cohort 1 = not received or not recently failed (>90 days) bevacizumab; Cohort 2 = recently (<90 days) failed bevacizumab
# Assay type: in vivo, human
# Method: This solution was reconstituted in dextrose 5% in water to a final concentration between 0.06-0.6 mg/mL Drug (7.5 mg/m2) was to be given until the onset of toxicity requiring discontinuation or tumor progression. Tumor response was assessed=14d after every second cycle and before every third cycle using MRI.
# [1] = All Patients, N = 45, possibly, probably, or definitely related
compound,measurement,setting,value
"CC[C@@]1(O)C(=O)OCc2c1cc1n(c2=O)Cc2c-1nc1ccc(O)cc1c2[Si](C)(C)C(C)(C)C [AR-67, (205)-7-tert-butyldimethysilyl-10-hydroxycamptothecin]","TEAEs associated with laboratory abnormalities assessed as Grade 4 in toxicity, events",All Patients,Three
same,"headache as TEAE leading to discontinuation, patients",All Patients,3
same,patients with AR-67 permanently discontinued due to an SAE,All Patients,Three
same,patients with AR-67 temporarily interrupted or stopped due to an SAE,All Patients,Six
same,patients with dose modification due to an SAE,All Patients,2
same,"thrombocytopenia, anaemia, neutropenia, and leukopenia, each occurring in % of all patients",All Patients,11-18%
same,"Death, No of Events","All Patients, N = 45",3
same,"Death, patients (%)","All Patients, N = 45",(6.7) %
same,"SAE, No of Events","All Patients, N = 45",30
same,"TEAE Anaemia, patients (%)","All Patients, N = 45",15.6%
same,"TEAE Confusional state, patients (%)","All Patients, N = 45",11.1%
same,"TEAE Constipation, patients (%)","All Patients, N = 45",20.0%
same,"TEAE Convulsion, patients (%)","All Patients, N = 45",8.9%
same,"TEAE Definitely Related to AR-67, No of Events","All Patients, N = 45",55
same,"TEAE Diarrhoea, patients (%)","All Patients, N = 45",15.6%
same,"TEAE Dizziness, patients (%)","All Patients, N = 45",11.1%
same,"TEAE Dyspepsia, patients (%)","All Patients, N = 45",8.9%
same,"TEAE Eye Disorders, patients (%)","All Patients, N = 45",8.9%
same,"TEAE Flushing, patients (%)","All Patients, N = 45",11.1%
same,"TEAE Gastrointestinal Disorders, patients (%)","All Patients, N = 45",(51.1) %
same,"TEAE General Disorders and Administration Site Conditions, patients (%)","All Patients, N = 45",(37.8) %
same,"TEAE Headache, patients (%)","All Patients, N = 45",(22.2) %
same,"TEAE Hiccups, patients (%)","All Patients, N = 45",11.1%
same,"TEAE Hyperglycaemia, patients (%)","All Patients, N = 45",8.9%
same,"TEAE Hypopho sphataemia, patients (%)","All Patients, N = 45",8.9%
same,"TEAE Intensity Life Threatening, No of Events","All Patients, N = 45",4
same,"TEAE Intensity Life Threatening, patients (%)","All Patients, N = 45",(8.9) %
same,"TEAE Intensity Mild, No of Events","All Patients, N = 45",212/428 and 212
same,"TEAE Intensity Mild, patients (%)","All Patients, N = 45",(68.9) %
same,"TEAE Intensity Moderate, No of Events","All Patients, N = 45",128/428 and 128
same,"TEAE Intensity Moderate, patients (%)","All Patients, N = 45",(57.8) %
same,"TEAE Intensity Severe, No of Events","All Patients, N = 45",75
same,"TEAE Intensity Severe, patients (%)","All Patients, N = 45",(62.2) %
same,"TEAE Leukopenia, patients (%)","All Patients, N = 45",11.1%
same,"TEAE Lymphocyte count decreased, patients (%)","All Patients, N = 45",11.1%
same,"TEAE Muscular weakness, patients (%)","All Patients, N = 45",11.1%
same,"TEAE Musculoskeletal and Connective Tissue Disorders, patients (%)","All Patients, N = 45",(28.9) %
same,"TEAE Musculoskeletal pain, patients (%)","All Patients, N = 45",6.7%
same,"TEAE NCI-CTCAE Grade 1, No of Events","All Patients, N = 45",209
same,"TEAE NCI-CTCAE Grade 1, patients (%)","All Patients, N = 45",(66.7) %
same,"TEAE NCI-CTCAE Grade 2, No of Events","All Patients, N = 45",119
same,"TEAE NCI-CTCAE Grade 2, patients (%)","All Patients, N = 45",(51.1) %
same,"TEAE NCI-CTCAE Grade 3, No of Events","All Patients, N = 45",82
same,"TEAE NCI-CTCAE Grade 3, patients (%)","All Patients, N = 45",(66.7) %
same,"TEAE NCI-CTCAE Grade 4, No of Events","All Patients, N = 45",9
same,"TEAE NCI-CTCAE Grade 4, patients (%)","All Patients, N = 45",(20.0) %
same,"TEAE Nausea, patients (%)","All Patients, N = 45",20.0%
same,"TEAE Nervous System Disorders, patients (%)","All Patients, N = 45",(51.1) %
same,"TEAE Neutropenia, patients (%)","All Patients, N = 45",13.3%
same,"TEAE Neutrophil count decreased, patients (%)","All Patients, N = 45",13.3%
same,"TEAE Not Related to AR-67, No of Events","All Patients, N = 45",117
same,"TEAE Platelet count decreased, patients (%)","All Patients, N = 45",8.9%
same,"TEAE Possibly Related to AR-67, No of Events","All Patients, N = 45",170
same,"TEAE Probably Related to AR-67, No of Events","All Patients, N = 45",79
same,"TEAE Psychiatric Disorders, patients (%)","All Patients, N = 45",(28.9) %
same,"TEAE Respiratory, Thoracic, and Mediastinal Disorders, patients (%)","All Patients, N = 45",(24.4) %
same,"TEAE Thrombocytopenia, patients (%)","All Patients, N = 45",17.8%
same,"TEAE Vascular Disorders, patients (%)","All Patients, N = 45",17.8%
same,"TEAE Vision blurred, patients (%)","All Patients, N = 45",8.9%
same,"TEAE Vomiting, patients (%)","All Patients, N = 45",8.9%
same,"TEAE White blood cell count decreased, patients (%)","All Patients, N = 45",11.1%
same,"TEAE leading to death, No of Events","All Patients, N = 45",17
same,"TEAE leading to early discontinuation, No of Events","All Patients, N = 45",10
same,"TEAE, No of Events","All Patients, N = 45",428
same,"≥1 TEAE leading to death, patients (%)","All Patients, N = 45",(4.4) %
same,"1 related SAE, patients (%)",[1],(24.4) %
same,"related SAE, No of Events",[1],19/29 and 19/30 and 11/30 and 19
same,"related TEAE, No of Events",[1],304
same,"SAE headache, patients",Cohort 1,1
same,"SAE infections and infestations, events",Cohort 1,4
same,"SAE infections and infestations, patients",Cohort 1,3
same,"SAE nervous system disorders, events",Cohort 1,3
same,"SAE nervous system disorders, patients",Cohort 1,3
same,"SAE respiratory, thoracic and mediastinal disorders, events",Cohort 1,3
same,"SAE respiratory, thoracic and mediastinal disorders, patients",Cohort 1,2
same,"Death, No of Events","Cohort 1, N = 30",1
same,"Death, patients (%)","Cohort 1, N = 30",(3.3) %
same,"SAE, No of Events","Cohort 1, N = 30",16
same,"TEAE Anaemia, patients (%)","Cohort 1, N = 30",23.3% and 23%
same,"TEAE Blood and Lymphatic System Disorders, events","Cohort 1, N = 30",41
same,"TEAE Confusional state, patients (%)","Cohort 1, N = 30",10.0%
same,"TEAE Constipation, patients (%)","Cohort 1, N = 30",23.3% and 23%
same,"TEAE Convulsion, patients (%)","Cohort 1, N = 30",10.0%
same,"TEAE Definitely Related to AR-67, No of Events","Cohort 1, N = 30",36
same,"TEAE Definitely Related to AR-67, patients (%)","Cohort 1, N = 30",(40.0) %
same,"TEAE Diarrhoea, patients (%)","Cohort 1, N = 30",16.7%
same,"TEAE Dizziness, patients (%)","Cohort 1, N = 30",16.7%
same,"TEAE Dyspepsia, patients (%)","Cohort 1, N = 30",13.3%
same,"TEAE Eye Disorders, patients (%)","Cohort 1, N = 30",(10.0) %
same,"TEAE Flushing, patients (%)","Cohort 1, N = 30",(16.7) %
same,"TEAE Gastrointestinal Disorders, patients (%)","Cohort 1, N = 30",(50.0) %
same,"TEAE General Disorders and Administration Site Conditions, patients (%)","Cohort 1, N = 30",(36.7) %
same,"TEAE Headache, patients (%)","Cohort 1, N = 30",23.3% and 23%
same,"TEAE Hiccups, patients (%)","Cohort 1, N = 30",(10.0) %
same,"TEAE Hyperglycaemia, patients (%)","Cohort 1, N = 30",(13.3) %
same,"TEAE Hypopho sphataemia, patients (%)","Cohort 1, N = 30",(13.3) %
same,"TEAE Intensity Life Threatening, No of Events","Cohort 1, N = 30",3
same,"TEAE Intensity Life Threatening, patients (%)","Cohort 1, N = 30",(10.0) %
same,"TEAE Intensity Mild, No of Events","Cohort 1, N = 30",177
same,"TEAE Intensity Mild, patients (%)","Cohort 1, N = 30",(73.3) %
same,"TEAE Intensity Moderate, No of Events","Cohort 1, N = 30",100
same,"TEAE Intensity Moderate, patients (%)","Cohort 1, N = 30",(66.7) %
same,"TEAE Intensity Severe, No of Events","Cohort 1, N = 30",59
same,"TEAE Intensity Severe, patients (%)","Cohort 1, N = 30",(60.0) %
same,"TEAE Investigations SOC, events","Cohort 1, N = 30",101
same,"TEAE Leukopenia, patients (%)","Cohort 1, N = 30",16.7%
same,"TEAE Lymphocyte count decreased, patients (%)","Cohort 1, N = 30",16.7%
same,"TEAE Metabolism and Nutrition Disorders, patients (%)","Cohort 1, N = 30",(26.7) %
same,"TEAE Muscular weakness, patients (%)","Cohort 1, N = 30",10.0%
same,"TEAE Musculoskeletal and Connective Tissue Disorders, patients (%)","Cohort 1, N = 30",(33.3) %
same,"TEAE Musculoskeletal pain, patients (%)","Cohort 1, N = 30",10.0%

# From US20220395497A1, “Cancer Treatment Using Camptothecin Derivatives” (priority 2019, published 2022)
